Experimental data: patent US11040976B2, “Substrate selective inhibitors of insulin-degrading enzyme (IDE) and uses thereof” (President and Fellows of Harvard College, priority 2015, dated 2021)

Assays:
[1] = target: T1, IDE (R&D), substrate insulin (Homo sapiens, UniProt P14735); experiment: HTRF endpoint assay for IDE-mediated degradation of insulin; assay type: biochemical; conditions: HTRF endpoint assays for insulin and glucagon, FIG. 4; compounds 67 μM, 6bK 10 μM
T1 construct: recombinant human IDE42-1019 (R&D Systems); purchased R&D
T1 sequence (P14735 42-1019): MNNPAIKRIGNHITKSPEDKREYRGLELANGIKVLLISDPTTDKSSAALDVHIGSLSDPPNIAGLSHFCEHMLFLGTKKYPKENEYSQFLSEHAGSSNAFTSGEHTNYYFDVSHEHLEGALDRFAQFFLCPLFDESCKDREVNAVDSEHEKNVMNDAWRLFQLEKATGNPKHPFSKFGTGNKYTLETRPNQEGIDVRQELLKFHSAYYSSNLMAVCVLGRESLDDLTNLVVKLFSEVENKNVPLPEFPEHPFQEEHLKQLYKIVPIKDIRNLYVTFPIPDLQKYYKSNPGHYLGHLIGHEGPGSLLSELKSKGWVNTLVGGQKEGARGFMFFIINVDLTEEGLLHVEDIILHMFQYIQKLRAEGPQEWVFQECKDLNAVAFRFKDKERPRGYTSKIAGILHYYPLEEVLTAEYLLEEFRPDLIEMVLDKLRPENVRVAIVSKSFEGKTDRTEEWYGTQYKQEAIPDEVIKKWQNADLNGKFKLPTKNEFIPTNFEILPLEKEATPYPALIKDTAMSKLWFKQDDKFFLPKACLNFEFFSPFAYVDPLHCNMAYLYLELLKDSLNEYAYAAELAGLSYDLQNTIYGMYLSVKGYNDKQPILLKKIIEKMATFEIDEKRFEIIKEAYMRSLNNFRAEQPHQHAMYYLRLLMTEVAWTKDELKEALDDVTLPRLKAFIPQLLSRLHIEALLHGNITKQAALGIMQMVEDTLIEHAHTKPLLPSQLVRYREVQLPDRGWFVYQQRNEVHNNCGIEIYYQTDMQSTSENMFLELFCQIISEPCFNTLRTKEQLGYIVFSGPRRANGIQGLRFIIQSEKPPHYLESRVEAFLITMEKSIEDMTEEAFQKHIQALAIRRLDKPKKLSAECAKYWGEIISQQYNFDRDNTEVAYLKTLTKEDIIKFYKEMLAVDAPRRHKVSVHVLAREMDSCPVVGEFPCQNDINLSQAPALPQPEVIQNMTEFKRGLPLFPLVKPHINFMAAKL
Experimental: A solution of 0.8 μg/mL IDE (R&D) in pH 7.5 buffer containing 20 mM HEPES, 135 mM NaCl (24 μL) was transferred to a 200 μL tube strip, and combined with 1 μL of each inhibitor (10 mM in DMSO, or as a 3-fold dilution series). A solution of insulin in “Assay Diluent” (CisBio, 25 μL) was added to a final concentration of 20 ng/mL, and incubated at 30° C. for 15 minutes. This procedure was optimized to result in ˜75% degradation of insulin. The reaction was terminated by adding 25 μL of inhibitor Ii1 (200 nM) and chilled on ice. The remaining insulin was quantified using 10 μL of the quenched enzymatic reaction using the sensitive-range protocol Homogeneous Time-Resolved FRET Insulin assay (CisBio® 62INSPEB, see FIG. 3) in 20 μL total volume according to the manufacturer's instructions (384 well-plate Greiner 784904 non-binding). Fluorescence was measured using a Tecan M1000Pro plate reader (excitation=320 nm, emission=665 and 620 nm, lag time=60 μs) according the assay manufacturer's recommendations. Blank wells and insulin standard curve were included in the assay.
FIG. 4 compares the determined endpoint for insulin degradation with of glucagon degradation for a DMSO control, 6bK at 10 μM, and exemplary compounds of the invention at concentrations of 67 μM. […]

[2] = target: T2, IDE, substrate amylin (fp) peptide (Homo sapiens, UniProt P14735); experiment: IDE concentration dependence profile with fluorogenic amylin analog; assay type: biochemical; conditions: FIGS. 11B and 11C
T2 sequence (P14735 1-1019): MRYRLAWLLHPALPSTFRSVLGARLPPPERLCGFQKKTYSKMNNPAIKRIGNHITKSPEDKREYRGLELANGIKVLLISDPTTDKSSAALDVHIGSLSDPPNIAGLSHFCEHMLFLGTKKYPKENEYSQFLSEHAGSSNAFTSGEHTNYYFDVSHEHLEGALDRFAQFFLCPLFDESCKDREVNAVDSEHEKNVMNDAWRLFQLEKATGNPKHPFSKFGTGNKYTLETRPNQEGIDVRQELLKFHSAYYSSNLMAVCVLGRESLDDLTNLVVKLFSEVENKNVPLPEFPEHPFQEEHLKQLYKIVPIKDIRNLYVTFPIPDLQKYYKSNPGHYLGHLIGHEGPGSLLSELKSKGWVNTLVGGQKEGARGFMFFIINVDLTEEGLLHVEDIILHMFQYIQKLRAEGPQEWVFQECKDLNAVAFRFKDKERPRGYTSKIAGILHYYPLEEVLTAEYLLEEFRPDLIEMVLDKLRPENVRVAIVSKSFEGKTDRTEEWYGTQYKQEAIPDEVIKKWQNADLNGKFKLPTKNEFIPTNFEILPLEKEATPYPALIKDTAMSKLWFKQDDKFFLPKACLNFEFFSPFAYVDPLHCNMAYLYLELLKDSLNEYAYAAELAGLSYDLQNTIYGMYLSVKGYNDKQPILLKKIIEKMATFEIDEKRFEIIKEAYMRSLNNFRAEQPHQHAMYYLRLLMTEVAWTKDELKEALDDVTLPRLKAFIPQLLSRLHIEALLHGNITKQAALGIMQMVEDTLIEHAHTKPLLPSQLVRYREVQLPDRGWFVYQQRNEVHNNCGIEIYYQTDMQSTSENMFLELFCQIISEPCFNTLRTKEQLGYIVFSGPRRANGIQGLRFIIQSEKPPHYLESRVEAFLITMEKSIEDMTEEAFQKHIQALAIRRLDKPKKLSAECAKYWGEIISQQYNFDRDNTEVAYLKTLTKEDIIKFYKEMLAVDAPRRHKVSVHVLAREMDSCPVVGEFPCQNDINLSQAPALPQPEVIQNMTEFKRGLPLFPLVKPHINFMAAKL
Experimental: In order to determine the behavior of the inhibitors with respect to amylin, a concentration dependence profile was measured for IDE in the presence of a specified concentration of inhibitor and a fluorogenic amylin analog. The amylin (fp) peptide sequence was KCNTATCATXRLANFLVHSSNNZGAILSSTNVGSNTY-NH2 (SEQ ID NO: 8). The residue marked as X is Lys-γN-anthrinilamide, and the residue marked as Z is 3-nitro-Tyr.

| Structure (SMILES) | selectivity between insulin degradation and glucagon degradation [1] | selectivity for inhibiting degradation of amylin over glucagon ([2]; amylin (fp) curve compared with HTRF glucagon curve) | selectivity for inhibiting degradation of insulin over amylin and glucagon ([2]; amylin (fp) curve compared with HTRF insulin and glucagon curves) |
| --- | --- | --- | --- |
| NCCCC[C@@H]1NC(=O)/C=C/C(=O)N[C@H](C(N)=O)CCCCNC(=O)[C@@H](Cc2ccc(C(=O)c3ccccc3)cc2)NC(=O)[C@H](CC2CCCCC2)NC1=O [6bK, reference compound] | no selectivity | – | – |
| Cc1cccc(-c2ccc([C@@H]3[C@@H](CO)N4CCCCN(S(=O)(=O)c5ccccc5C)C[C@@H]34)cc2)c1 [compound 297] | – | selectivity for inhibiting degradation of amylin over degradation of glucagon | selectivity for inhibiting degradation of insulin over degradation of amylin and glucagon |
